Reference: patent publication US20260132123A1, “ABAD INHIBITOR COMPOUNDS” (UNIVERSITY COURT OF THE UNIVERSITY OF ST ANDREWS, priority 2021, published 2026)
pEC50: −log10 of the molar value.

How the values were obtained:
mtsABAD HEK293 cells [1] = test: Alamar Blue cell viability assay; type: cell-based, human; details: 50 μM compound
Experimental: Cell viability was assessed via fluorescence change using the commercially available Alamar Blue from ThermoFisher. HEK293 cells overexpressing mts17β-HSD10 were cultured in phenol-red free media (10% FBS, 1 mM sodium pyruvate, 100 units penicillin, 0.1 mg/mL streptomycin and 2 mM L-glutamine) and seeded at a density of 10,000 cells per well (100 μL, 96 well plates). […] Treated cells were then incubated at 37° C. and CO2 (5%) for 24 hours before the assay was performed as per the manufacturer's instructions. Fluorescence was measured at 530 nm excitation and 590 nm emission using a SpectraMaxM2e spectrophotometer.

17β-HSD10 = target: T1, 17β-HSD10 (Homo sapiens, UniProt Q99714); test: 17β-HSD10 (ABAD) enzyme inhibition assay, NADH oxidation read at 340 nm (primary screen and dose response); type: biochemical; details: recombinant 17βHSD10 enzyme assay; for Hill Slope / Max. Fit / Min. Fit: curve fit
T1 construct: Histev (histidine tag with TEV site) (N, cleaved yes); made in house; host or cells: E. coli BL21-CodonPlus
T1 sequence (Q99714 1-261): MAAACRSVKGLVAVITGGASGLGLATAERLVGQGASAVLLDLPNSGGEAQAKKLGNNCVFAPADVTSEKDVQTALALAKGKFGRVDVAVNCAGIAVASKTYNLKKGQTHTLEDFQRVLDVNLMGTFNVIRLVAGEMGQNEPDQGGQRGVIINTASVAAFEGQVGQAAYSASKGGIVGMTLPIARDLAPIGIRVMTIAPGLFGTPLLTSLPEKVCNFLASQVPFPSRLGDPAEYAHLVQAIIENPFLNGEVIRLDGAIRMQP
Procedure, shortened: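 Screening used a 35 min room-temperature endpoint A340 read after compound (10 μM) and enzyme (2.5 nM, E. coli-expressed, His-tag removed) preincubated 15 min, then 100 μM NADH plus acetoacetyl-CoA added. Dose-response runs tracked absorbance kinetically 45 min; buffer pH 7.4 Tris with BSA, DTT.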

mtsABAD HEK293 cells [2] = test: Lactate dehydrogenase (LDH) cytotoxicity assay; type: cell-based, human; details: 50 μM compound
Experimental: Cell cytotoxicity was assessed via the measurement of lactate dehydrogenase leakage into the culture medium using a commercially available kit from Pierce (Thermo Scientific cat no. 88953). This was carried out in accordance with the kit guidelines, with the activity of Lactate Dehydrogenase (LDH) being calculated from the change in absorbance at […] as NADH is reduced. HEK293 cells overexpressing mts17β-HSD10 were cultured in phenol-red free media (10% fetal bovine serum (FBS), 1 mM sodium pyruvate, 100 units penicillin, 0.1 mg/mL streptomycin and 2 mM L-glutamine) and seeded at a density of 10,000 cells per well (100 μL, 96 well plates). […] Treated cells were incubated at 37° C. and CO2 (5%) for 24 hours before the LDH assay was performed as per the manufacturer's instructions. Spontaneous control (water) and maximum control (lysis buffer) used in accordance with the kit guide. Absorbance was measured at 490 nm and 680 nm using a SpectraMaxM2e spectrophotometer. The measured LDH activity was used to calculate % cytotoxicity using the following equation: […]

| SMILES | Alamar Blue % Viability (50 μM Dose) (mtsABAD HEK293 cells [1]) | pEC50 (17β-HSD10) | Max. Effect (%) (17β-HSD10) | Hill Slope (17β-HSD10) | Max. Fit (17β-HSD10) | Min. Fit (17β-HSD10) | LDH % Toxicity (50 μM Dose) (mtsABAD HEK293 cells [2]) |
| --- | --- | --- | --- | --- | --- | --- | --- |
| CC(C)CN(C(=O)c1ccccc1F)c1cccc(N(C)Cc2ccccn2)c1 [ESC1002209] | 80.514% | 5.24 | 80% | 0.98 | 104 | 0 | 5.698% |
| CC(C)CN(C(=O)c1ccccc1F)c1cccc(N(C)Cc2cccnc2)c1 [ESC1002210] | 93.200% | 5.21 | 72% | 1.4 | 82 | 0 | 5.509% |
| CC(C)CN(C(=O)c1ccccc1F)c1cccc(N(C)Cc2ccncc2)c1 [ESC1002211] | 82.553% | < 4.70 | 40% |  |  |  | 5.501% |
| CC(C)CN(C(=O)c1ccccc1F)c1cccc(N(C)Cc2ccc(O)nc2)c1 [ESC1002212] | 94.278% | < 4.70 | 16% |  |  |  | 5.576% |
| CCc1ccc(CN(C)c2cccc(N(CC(C)C)C(=O)c3ccccc3F)c2)cn1 [ESC1002213] | 81.860% | < 4.70 | 15% |  |  |  | 8.010% |
| CC(C)CN(C(=O)c1ccccc1F)c1cccc(N(C)Cc2cn3ccccc3n2)c1 [ESC1002214] | 82.439% | < 4.70 | 22% |  |  |  | 5.902% |
| CCN(C(=O)c1ccccc1F)c1cccc(N(C)Cc2cnc[nH]2)c1 [ESC1002234, N-ethyl-2-fluoro-N-[3-[1H-imidazol-5-ylmethyl(methyl)amino]phenyl]benzamide] | 86.98% | 5.83 | 94% | 0.96 | 101 | −3 | 4.81% |
| CCCC(=O)N(CC(C)C)c1cccc(N(C)Cc2cnc[nH]2)c1 [ESC1002235, N-[3-[1H-imidazol-5-ylmethyl(methyl)amino]phenyl]-N-isobutyl-butanamide] | 84.09% | 5.53 | 85% | 1.1 | 93 | −3 | 5.54% |
| CC(C)CN(C(=O)c1ccccc1F)c1ccc2c(c1)N(Cc1cnc[nH]1)CCC2 [ESC1002236, 2-fluoro-N-[1-(1H-imidazol-5-ylmethyl)-3,4-dihydro-2H-quinolin-7-yl]-N-isobutyl-benzamide] | 82.69% | < 4.70 | 30% |  |  |  | 3.94% |
| CN(Cc1c[nH]cn1)c1cccc(N(CC2CCC2)C(=O)c2ccccc2F)c1 [ESC1002265] | 80.52% | 6.02 | 96% | 1.1 | 99 | 0 | 4.52% |
| COCCN(C(=O)c1ccccc1F)c1cccc(N(C)Cc2c[nH]cn2)c1 [ESC1002266, 2-fluoro-N-[3-[1H-imidazol-4-ylmethyl(methyl)amino]phenyl]-N-(2-methoxyethyl)benzamide] | 89.86% | 5.19 | 74% | 0.98 | 100 | −4 | 5.22% |
| CC(C)OCCN(C(=O)c1ccccc1F)c1cccc(N(C)Cc2c[nH]cn2)c1 [ESC1002267] | 89.57% | 5.22 | 76% | 0.9 | 103 | −4 | 4.81% |
